In assay [1] the target is T1, dmObsc-PK1 (Drosophila melanogaster, UniProt A8DYP0).
T1 construct: gene Obsc; pseudokinase domain PK1 plus 40 C-terminal residues (3186-3480); N-terminal His6-3C tag (pOPINF), cleaved with 3C protease; E. coli Rosetta
Nature of the assay: X-ray crystallography, […] Å. The following applies: co-crystallized with 3 mM ATP and 1 mM MgCl2, ADP found in density; no cation observed; pH 9.5; ATP-binding pocket.

The target in assay [2] is T1, dmObsc-PK1. Nature of the assay: isothermal titration calorimetry. The class given is binding. A general note: In ITC the heat of successive injections is recorded.

Broadly, the Kd is the concentration at which binding is half-saturated. The low end stands for tighter binding, the high end for weaker binding.

T1 sequence (A8DYP0 3186-3480): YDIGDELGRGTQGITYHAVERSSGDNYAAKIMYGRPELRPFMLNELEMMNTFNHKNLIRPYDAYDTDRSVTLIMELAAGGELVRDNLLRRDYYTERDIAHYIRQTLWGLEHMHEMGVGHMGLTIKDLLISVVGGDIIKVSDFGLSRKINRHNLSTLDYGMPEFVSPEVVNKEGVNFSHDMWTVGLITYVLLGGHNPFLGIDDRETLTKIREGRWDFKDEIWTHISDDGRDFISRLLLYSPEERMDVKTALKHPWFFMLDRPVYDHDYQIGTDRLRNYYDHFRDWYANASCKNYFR

As to `Nc1ncnc2c1ncn2[C@@H]1O[C@H](COP(=O)(O)OP(=O)(O)O)[C@@H](O)[C@H]1O` [ADP], the “X-ray crystallography, 1.90 Å” value on dmObsc-PK1 [1] is reported as “electron density maps revealed ADP bound to the kinase”. Molecule `Nc1ncnc2c1ncn2[C@@H]1O[C@H](COP(=O)(O)OP(=O)(O)OP(=O)(O)O)[C@@H](O)[C@H]1O` [ATP] came in with a Kd on dmObsc-PK1 [2] of 61.8 ± 4.2 µM.

For the origin of these results see article PMC10129394, “PK1 from Drosophila obscurin is an inactive pseudokinase with scaffolding properties” (Open Biology, 2023).
